Reference: BindingDB's records for doi:10.1021/jm5008853 (University of Ferrara, 2014)

Assay: Allosteric enhancer activity at human adenosine A1 receptor expressed in CHO cell membranes assessed as [3H]NECA affinity constant at 1 uM (Kd = 0.87 +/- 0.04 nM)

Kd: 460 pM
SMILES: CC(C)(C)Cc1c(C#Cc2ccccc2)sc(N)c1C(=O)c1ccc(Cl)cc1
